ChEMBL document CHEMBL1201862, “PubChem BioAssay data set” (2004)
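Interpolation was linear, between the two tested concentrations surrounding the appropriate level; five concentrations were tested over 48 hours in 96-well plates. At the GI50, growth is halved.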 The source made the active and inactive calls. Cut-off read from the data, not from the text of the source: active = GI50 up to about 1.1 µM and inactive = higher.

Experiments:
Assay in all cases: inhibition of tumour cell growth, NCI panel, 48 h
HOP-92 = system: HOP-92
SF-295 = system: SF-295
KM12 = system: KM12
HCC 2998 = system: HCC 2998
OVCAR-4 = system: OVCAR-4
HT-29 = system: HT-29
UO-31 = system: UO-31
U-251 = system: U-251
NCI/ADR-RES = system: NCI/ADR-RES
EKVX = system: EKVX
IGROV-1 = system: IGROV-1
SK-MEL-5 = system: SK-MEL-5
SR = system: SR
A549 = system: A549
MCF7 = system: MCF7
SW-620 = system: SW-620
M14 = system: M14
OVCAR-3 = system: OVCAR-3
HL-60 = system: HL-60
A498 = system: A498

Measured: GI50

COc1ccc2nc3n(c2c1)C(=O)c1ccccc1-3
inactive: HOP-92 > 100 µM | SF-295 > 100 µM | KM12 > 100 µM | HCC 2998 > 100 µM | OVCAR-4 > 100 µM | HT-29 > 100 µM | UO-31 > 100 µM | U-251 > 100 µM | NCI/ADR-RES > 100 µM | EKVX > 100 µM | IGROV-1 > 100 µM | SK-MEL-5 > 100 µM | SR > 100 µM | A549 > 100 µM | MCF7 > 100 µM | SW-620 > 100 µM | M14 > 100 µM | OVCAR-3 > 100 µM | HL-60 > 100 µM

C=CC(=O)NC(O)(C(=O)OCC)C(F)(F)F (configuration not stated)
inactive: HOP-92 > 100 µM | SF-295 > 100 µM | KM12 > 100 µM | HCC 2998 > 100 µM | OVCAR-4 > 100 µM | HT-29 > 100 µM | UO-31 > 100 µM | U-251 > 100 µM | NCI/ADR-RES > 100 µM | EKVX > 100 µM | IGROV-1 > 100 µM | SK-MEL-5 > 100 µM | SR 64.4 µM | A549 > 100 µM | MCF7 > 100 µM | SW-620 > 100 µM | M14 > 100 µM | OVCAR-3 > 100 µM | HL-60 35 µM

CC(SC(=S)N1CCOCC1)C(=O)Nc1nnc(-c2ccc(Cl)cc2)o1 (configuration not stated)
inactive: HOP-92 > 100 µM | HCC 2998 > 100 µM | OVCAR-4 26.7 µM | HT-29 36.9 µM | UO-31 22.4 µM | U-251 35 µM | NCI/ADR-RES 23.6 µM | IGROV-1 33.8 µM | SK-MEL-5 31.6 µM | SR 8.07 µM | A549 34.5 µM | MCF7 32.3 µM | SW-620 42.6 µM | M14 36 µM | A498 60.5 µM | OVCAR-3 25.8 µM

CCCCC1(N=[N+]=[N-])C(=O)c2cccc3c2N(CCC3)C1=O (configuration not stated)
inactive: HOP-92 > 100 µM | SF-295 > 100 µM | KM12 > 100 µM | HCC 2998 > 100 µM | OVCAR-4 > 100 µM | HT-29 > 100 µM | U-251 > 100 µM | NCI/ADR-RES 31 µM | EKVX > 100 µM | IGROV-1 > 100 µM | SK-MEL-5 > 100 µM | SR > 100 µM | A549 > 100 µM | MCF7 > 100 µM | SW-620 > 100 µM | M14 > 100 µM | A498 > 100 µM | OVCAR-3 44.6 µM
